What follows are compounds tested on OF1 mice (assay: Maximal electroshock test (MES Test)). Details: Mus musculus, po; 50 mg/kg, p.o., pre-treatment time −0.5 h (footnote d); read-out: %-Protection.
Assay type: in vivo
Procedure: Compounds of the invention were tested in OF1 mice using the maximal electroshock test (MES Test) described in detail by Schmutz et al., Naunyn-Schmiedeberg's Arch Pharmacol 1990, 342, 61-66. Briefly, generalized tonic-clonic convulsions of the hind extremities were induced by passing electrical current through temporal electrodes (50 Hz, 18 mA, 0.2s). […] 30 mg/kg carbamazepine was used as a positive control; mice were classified as protected by a compound If the duration of the seizure lasted only 3 second or less. Five mice were used for each treatment condition and the percentage of protected mice was used as readout (i.e. a compound could give 0%, 20%, 40%, 60%, 80% or 100% protection). Usually, compounds of the invention or their parents were given at a dose of 50 mg/kg, p.o., 1 hour prior to induction of convulsions (i.e. “pre-treatment time −1 h”).
ED50 values (ED: effective dose) were calculated using GraphPad Prism, v4.02. after shock administration, mouse blood was collected for determination of compounds' blood exposure.
With CC(=O)N(n1c(=O)[nH]c2cc(C(C)C)c(-c3ccnn3C)cc2c1=O)S(C)(=O)=O [Example 3.01, N-Acetyl-N-[7-isopropyl-6-(2-methyl-2H-pyrazol-3-yl)-2,4-dioxo-1,4-dihydro-2H-quinazolin-3-yl]-methanesulfonamide] the responders at 50 mg/kg was 100%.

Same assay, conditions: Mus musculus, po; 50 mg/kg, p.o., pre-treatment time −1 h; read-out: %-Protection
For CCCCC(=O)N(n1c(=O)[nH]c2cc(C(F)(F)F)c(-c3ccnn3C)cc2c1=O)S(C)(=O)=O [Example 1.01, N-[6-(2-Methyl-2H-pyrazol-3-yl)-2,4-dioxo-7-trifluoromethyl-1,4-dihydro-2H-guinazolin-3-yl]-N-pentanoyl-methanesulfonamide], the responders at 50 mg/kg was 40%.
CC(C)C(=O)N(n1c(=O)[nH]c2cc(C(F)(F)F)c(-c3ccnn3C)cc2c1=O)S(C)(=O)=O [Example 1.02, N-Isobutyryl-N-[6-(2-methyl-2H-pyrazol-3-yl)-2,4-dioxo-7-trifluoromethyl-1,4-dihydro-2H-quinazolin-3-yl]-methanesulfonamide] showed a responders at 50 mg/kg of 100%.
CCCC(=O)N(n1c(=O)[nH]c2cc(C(F)(F)F)c(-c3ccnn3C)cc2c1=O)S(C)(=O)=O [Example 1.03, N-Butyryl-N-[6-(2-methyl-2H-pyrazol-3-yl)-2,4-dioxo-7-trifluoromethyl-1,4-dihydro-2H-quinazolin-3-yl]-methanesulfonamide] gave a responders at 50 mg/kg of 100%.
CCCCCC(=O)N(n1c(=O)[nH]c2cc(C(F)(F)F)c(-c3ccnn3C)cc2c1=O)S(C)(=O)=O [Example 1.04, N-Hexanoyl-N-[6-(2-methyl-2H-pyrazol-3-yl)-2,4-dioxo-7-trifluoromethyl-1,4-dihydro-2H-quinazolin-3-yl]-methanesulfonamide] was tested, and the responders at 50 mg/kg was 80%.
In the case of COC(=O)N(n1c(=O)[nH]c2cc(C(F)(F)F)c(-c3ccnn3C)cc2c1=O)S(C)(=O)=O [Example 1.05, Methanesulfonyl-[6-(2-methyl-2H-pyrazol-3-yl)-2,4-dioxo-7-trifluoromethyl-1,4-dihydro-2H-quinazolin-3-yl]-carbamic acid methyl ester], the responders at 50 mg/kg is reported as 80%.
With CC(C)COC(=O)N(n1c(=O)[nH]c2cc(C(F)(F)F)c(-c3ccnn3C)cc2c1=O)S(C)(=O)=O [Example 1.06, Methanesulfonyl-[6-(2-methyl-2H-pyrazol-3-yl)-2,4-dioxo-7-trifluoromethyl-1,4-dihydro-2H-quinazolin-3-yl]-carbamic acid isobutyl ester] the responders at 50 mg/kg was 60%.
Work on COCCOC(=O)N(n1c(=O)[nH]c2cc(C(F)(F)F)c(-c3ccnn3C)cc2c1=O)S(C)(=O)=O [Example 1.07, Methanesulfonyl-[6-(2-methyl-2H-pyrazol-3-yl)-2,4-dioxo-7-trifluoromethyl-1,4-dihydro-2H-quinazolin-3-yl]-carbamic acid 2-methoxy-ethyl ester] yielded a responders at 50 mg/kg of 80%.
CCc1cc2[nH]c(=O)n(N(C(C)=O)S(C)(=O)=O)c(=O)c2cc1-c1ccnn1C [Example 2.01, N-Acetyl-N-[7-ethyl-6-(2-methyl-2H-pyrazol-3-yl)-2,4-dioxo-1,4-dihydro-2H-quinazolin-3-yl]-methanesulfonamide] was tested, and the responders at 50 mg/kg was 100%.
CCCOC(=O)N(n1c(=O)[nH]c2cc(CC)c(-c3ccnn3C)cc2c1=O)S(C)(=O)=O [Example 2.06, Methanesulfonyl-[7-ethyl-6-(2-methyl-2H-pyrazol-3-yl)-2,4-dioxo-1,4-dihydro-2H-quinazolin-3-yl]-carbamic acid propyl ester] was tested, and the responders at 50 mg/kg was 60%.
Work on CCc1cc2[nH]c(=O)n(N(C(=O)OC)S(C)(=O)=O)c(=O)c2cc1-c1ccnn1C [Example 2.07, Methanesulfonyl-[7-ethyl-6-(2-methyl-2H-pyrazol-3-yl)-2,4-dioxo-1,4-dihydro-2H-quinazolin-3-yl]-carbamic acid methyl ester] yielded a responders at 50 mg/kg of 100%.
With CCOC(=O)N(n1c(=O)[nH]c2cc(CC)c(-c3ccnn3C)cc2c1=O)S(C)(=O)=O [Example 2.08, Methanesulfonyl-[7-ethyl-6-(2-methyl-2H-pyrazol-3-yl)-2,4-dioxo-1,4-dihydro-2H-quinazolin-3-yl]-carbamic acid ethyl ester] the responders at 50 mg/kg was 80%.
With CCCCOC(=O)N(n1c(=O)[nH]c2cc(CC)c(-c3ccnn3C)cc2c1=O)S(C)(=O)=O [Example 2.09, Methanesulfonyl-[7-ethyl-6-(2-methyl-2H-pyrazol-3-yl)-2,4-dioxo-1,4-dihydro-2H-quinazolin-3-yl]-carbamic acid butyl ester] the responders at 50 mg/kg was 40%.
CCC(=O)N(n1c(=O)[nH]c2cc(CC)c(-c3ccnn3C)cc2c1=O)S(C)(=O)=O [Example 2.10, N-[7-Ethyl-6-(2-methyl-2H-pyrazol-3-yl)-2,4-dioxo-1,4-dihydro-2H-quinazolin-3-yl]-N-propionyl-methanesulfonamide] gave a responders at 50 mg/kg of 100%.
Compound CCCCC(=O)N(n1c(=O)[nH]c2cc(CC)c(-c3ccnn3C)cc2c1=O)S(C)(=O)=O [Example 2.11, N-[7-Ethyl-6-(2-methyl-2H-pyrazol-3-yl)-2,4-dioxo-1,4-dihydro-2H-quinazolin-3-yl]-N-pentanoyl-methanesulfonamide] has a responders at 50 mg/kg of 100%.
For CCc1cc2[nH]c(=O)n(N(C(=O)OC(C)C)S(C)(=O)=O)c(=O)c2cc1-c1ccnn1C [Example 2.12, Methanesulfonyl-[7-ethyl-6-(2-methyl-2H-pyrazol-3-yl)-2,4-dioxo-1,4-dihydro-2H-quinazolin-3-yl]-carbamic acid isopropyl ester], the responders at 50 mg/kg was 60%.
CCCCCOC(=O)N(n1c(=O)[nH]c2cc(CC)c(-c3ccnn3C)cc2c1=O)S(C)(=O)=O [Example 2.13, Methanesulfonyl-[7-ethyl-6-(2-methyl-2H-pyrazol-3-yl)-2,4-dioxo-1,4-dihydro-2H-quinazolin-3-yl]-carbamic acid pentyl ester] gave a responders at 50 mg/kg of 20%.
For CCc1cc2c(cc1-c1ccnn1C)c(=O)n(N(C(C)=O)S(C)(=O)=O)c(=O)n2C(C)=O [Example 2.14, N-Acetyl-N-[1-acetyl-7-ethyl-6-(2-methyl-2H-pyrazol-3-yl)-2,4-dioxo-1,4-dihydro-2H-quinazolin-3-yl]-methanesulfonamide], the responders at 50 mg/kg was 100%.

Same assay, conditions: Mus musculus, po; Dose: 15 mg/kg, p.o. (footnote c), pre-treatment time −1 h; read-out: %-Protection
COCCOC(=O)N(n1c(=O)[nH]c2cc(C(C)C)c(-c3ccnn3C)cc2c1=O)S(C)(=O)=O [Example 3.02, [7-Isopropyl-6-(2-methyl-2H-pyrazol-3-yl)-2,4-dioxo-1,4-dihydro-2H-quinazolin-3-yl]-methanesulfonyl-carbamic acid 2-methoxy-ethyl ester] showed a responders at 15 mg/kg of 100%.

Same assay, conditions: Mus musculus, po; Dose: 25 mg/kg, p.o. (footnote b), pre-treatment time −1 h; read-out: %-Protection
Compound CCCC(=O)N(n1c(=O)[nH]c2cc(CC)c(-c3ccnn3C)cc2c1=O)S(C)(=O)=O [Example 2.02, N-Butyryl-N-[7-ethyl-6-(2-methyl-2H-pyrazol-3-yl)-2,4-dioxo-1,4-dihydro-2H-quinazolin-3-yl]-methanesulfonamide] has a responders at 25 mg/kg of 100%.
In the case of CCCCCC(=O)N(n1c(=O)[nH]c2cc(CC)c(-c3ccnn3C)cc2c1=O)S(C)(=O)=O [Example 2.03, N-[7-Ethyl-6-(2-methyl-2H-pyrazol-3-yl)-2,4-dioxo-1,4-dihydro-2H-quinazolin-3-yl]-N-hexanoyl-methanesulfonamide], the responders at 25 mg/kg is reported as 100%.
In the case of CCc1cc2[nH]c(=O)n(N(C(=O)OCC(C)C)S(C)(=O)=O)c(=O)c2cc1-c1ccnn1C [Example 2.04, Methanesulfonyl-[7-ethyl-6-(2-methyl-2H-pyrazol-3-yl)-2,4-dioxo-1,4-dihydro-2H-quinazolin-3-yl]-carbamic acid isobutyl ester], the responders at 25 mg/kg is reported as 80%.
In the case of CCc1cc2[nH]c(=O)n(N(C(=O)OCCOC)S(C)(=O)=O)c(=O)c2cc1-c1ccnn1C [Example 2.05, Methanesulfonyl-[7-ethyl-6-(2-methyl-2H-pyrazol-3-yl)-2,4-dioxo-1,4-dihydro-2H-quinazolin-3-yl]-carbamic acid 2-methoxy-ethyl ester], the responders at 25 mg/kg is reported as 80%.

Same assay, conditions: Mus musculus, po; Table 5; 50 mg/kg, p.o., pre-treatment time −0.25 h; read-out: %-Protection
With CC(=O)N(n1c(=O)[nH]c2cc(C(C)C)c(-c3ccnn3C)cc2c1=O)S(C)(=O)=O [Example 3.01, N-Acetyl-N-[7-isopropyl-6-(2-methyl-2H-pyrazol-3-yl)-2,4-dioxo-1,4-dihydro-2H-quinazolin-3-yl]-methanesulfonamide] the responders at 50 mg/kg was 40%.

Same assay, conditions: Mus musculus, po; Table 5; 50 mg/kg, p.o., pre-treatment time −1 h; read-out: %-Protection
CC(=O)N(n1c(=O)[nH]c2cc(C(C)C)c(-c3ccnn3C)cc2c1=O)S(C)(=O)=O [Example 3.01, N-Acetyl-N-[7-isopropyl-6-(2-methyl-2H-pyrazol-3-yl)-2,4-dioxo-1,4-dihydro-2H-quinazolin-3-yl]-methanesulfonamide] gave a responders at 50 mg/kg of 100%.

Same assay, conditions: Mus musculus; dose of up to 50 mg/kg, p.o., 1 hour prior to induction of convulsions; read-out: %-Protection
Work on CCOC(=O)CCC(=O)N(n1c(=O)[nH]c2cc(C(F)(F)F)c(-c3ccnn3C(C)C)cc2c1=O)S(C)(=O)=O [4-{[6-(2-Isopropyl-2H-pyrazol-3-yl)-2,4-dioxo-7-trifluoromethyl-1,4-dihydro-2H-quinazolin-3-yl]-methanesulfonyl-amino}-4-oxo-butyric acid ethyl ester] yielded a responders at 50 mg/kg of 0%.
In the case of CCn1nccc1-c1cc2c(=O)n(N(C(=O)COC(C)=O)S(C)(=O)=O)c(=O)[nH]c2cc1C(F)(F)F [Acetic acid 2-{[6-(2-ethyl-2H-pyrazol-3-yl)-2,4-dioxo-7-trifluoromethyl-1,4-dihydro-2H-quinazolin-3-yl]-methanesulfonyl-amino}-2-oxo-ethyl ester], the responders at 50 mg/kg is reported as 0%.
In the case of CC(=O)OCC(=O)N(n1c(=O)[nH]c2cc(C(F)(F)F)c(-c3ccnn3C(C)C)cc2c1=O)S(C)(=O)=O [Acetic acid 2-{[6-(2-isopropyl-2H-pyrazol-3-yl)-2,4-dioxo-7-trifluoromethyl-1,4-dihydro-2H-quinazolin-3-yl]-methanesulfonyl-amino}-2-oxo-ethyl ester], the responders at 50 mg/kg is reported as 0%.

Same assay, conditions: Table 5; 50 mg/kg, p.o., pre-treatment time −0.5 h
CC(=O)N(n1c(=O)[nH]c2cc(C(C)C)c(-c3ccnn3C)cc2c1=O)S(C)(=O)=O [Example 3.01, N-Acetyl-N-[7-isopropyl-6-(2-methyl-2H-pyrazol-3-yl)-2,4-dioxo-1,4-dihydro-2H-quinazolin-3-yl]-methanesulfonamide] was tested, and the “%-Protection” value was 100%.

Source: patent US20130053381A1, “2,4-DIOXO-1,4-DIHYDRO-2H-QUINAZOLIN-3-YL-SULFONAMIDE DERIVATIVES” (NOVARTIS AG, priority 2010, published 2013)
